What was measured:
[1] = target: T1, PAR2 (Mus musculus, UniProt P55086); experiment: Mechanical hypersensitivity / paw withdrawal response to PAR2 agonist 2AT injected into the hindpaw; assay type: in vivo; details: mice
T1 construct: from tissue; host or cells: live mice, hindpaw
T1 sequence (P55086 26-399): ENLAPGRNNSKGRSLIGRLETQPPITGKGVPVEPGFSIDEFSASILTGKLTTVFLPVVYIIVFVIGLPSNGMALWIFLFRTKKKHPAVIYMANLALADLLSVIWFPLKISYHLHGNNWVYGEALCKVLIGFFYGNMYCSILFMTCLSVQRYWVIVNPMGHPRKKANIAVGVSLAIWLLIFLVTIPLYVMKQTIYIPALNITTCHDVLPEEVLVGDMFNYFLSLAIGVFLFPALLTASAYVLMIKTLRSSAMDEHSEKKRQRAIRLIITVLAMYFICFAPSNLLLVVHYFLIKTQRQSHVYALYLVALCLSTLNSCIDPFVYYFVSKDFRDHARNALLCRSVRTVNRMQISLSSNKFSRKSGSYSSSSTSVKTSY
Procedure: Experiments were conducted to test C781 in vivo in mice for its ability to block mechanical hypersensitivity (a pain measure) in response to a PAR2 agonist (2AT-LIGRL, also known as 2AT).
Animals were injected with 2at (black), 2at+C781(yellow), or C781 alone (green).
Animals were systemically treated with C781 or control and then local injected with 2at (black with control; yellow with C781) or with vehicle alone (green). […] This is important because previous PAR2 antagonists have not had systemic bioavailability and have only worked with very high doses via intravenous injection.

[2] = test system: PAR2-dependent Ca^2+ signaling; experiment: PAR2-dependent Ca2+ signaling; assay type: cell-based
Procedure: Addition of 1.75 μM of the potent PAR2 agonist 2at-LIGRL-NH2 (C134) induced Ca^2+ signaling in 50% of the cells within the experiment.

[3] = test system: PAR2-dependent MAPK signaling; experiment: PAR2-dependent MAPK signaling (MAPK phosphorylation); assay type: cell-based
[4] = target: T2, PAR2 (Homo sapiens, UniProt P55085); experiment: Inhibition of PAR2 response induced by 2at-LIGRL-NH2 (FIG. 1); assay type: cell-based; details: antagonist against agonist 2at-LIGR1-NH2
T2 sequence (P55085 26-397): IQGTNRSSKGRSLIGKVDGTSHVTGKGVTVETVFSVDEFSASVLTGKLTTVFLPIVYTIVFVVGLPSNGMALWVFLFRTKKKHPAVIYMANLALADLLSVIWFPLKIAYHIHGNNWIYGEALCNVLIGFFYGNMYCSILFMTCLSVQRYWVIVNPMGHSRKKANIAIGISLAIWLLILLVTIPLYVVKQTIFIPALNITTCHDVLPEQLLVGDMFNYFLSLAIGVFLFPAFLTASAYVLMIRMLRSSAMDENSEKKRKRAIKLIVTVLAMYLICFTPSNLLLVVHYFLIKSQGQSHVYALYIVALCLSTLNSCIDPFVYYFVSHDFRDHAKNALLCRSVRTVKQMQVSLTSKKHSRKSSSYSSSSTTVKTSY

[5] = target: T1, PAR2; experiment: 2AT-evoked hyperalgesic priming in the hindpaw; assay type: in vivo; details: given locally into the mouse hindpaw; FIG. 3

Molecule | paw withdrawal response (pain) induced by agonist ([1]; 2at injected into hindpaw, lower numbers indicative of pain) | cells showing Ca2+ signaling ([2]; agonist at 1.75 μM, percent of the cells within the experiment) [%] | induction of MAPK phosphorylation ([3]; agonist at 600 nM, set as 100% response) | concentration at which the 2at-LIGR1-NH2-induced PAR2 response was fully limited / compound was effective [4] [nM] | effect on 2at-induced paw withdrawal response (pain) ([1]; C781 given intraperitoneally 30 min prior to 2AT injection into the hindpaw, FIG. 4) | effect on paw withdrawal response of compound alone ([1]; C781 injected locally with vehicle alone (no 2at), FIG. 2) | effect on 2at-induced paw withdrawal response (pain) ([1]; C781 locally administered into hindpaw together with 2at, FIG. 2) | effect on paw withdrawal response after vehicle injection ([1]; systemically administered C781, local vehicle alone, FIG. 4) | effect on PAR2-dependent Ca2+ signaling ([2]; administered with 1.75 μM 2at-LIGRL-NH2 (C134), FIG. 6) | IC50 ([3]; response induced by 600 nM 2at-LIGRL-NH2 (100% response), 95% CI: 3.4 μM-21 μM, FIG. 5, read-out: IC50 for reduction of PAR2-dependent MAPK phosphorylation) [µM] | effect on 2AT-evoked hyperalgesic priming [5]
2-aminothiazol-LIGRL-NH2 [2at-LIGRL-NH2, reference compound] | induced a rapid withdrawal response | 50 | induced significant phosphorylation of MAPK | – | – | – | – | – | – | – | –
CC(C)CC(=O)N1C[C@H](NC(=O)c2csc(N)n2)C(=O)N2C1CN(CC1CCNCC1)C(=O)[C@@H]2CC(C)C (stereo partly drawn) [C732] | – | – | – | 100 to 300 | – | – | – | – | – | – | –
CC(C)CC(=O)N[C@H]1CN(C(=O)c2ccco2)C2CN(CC3CCNCC3)C(=O)[C@H](CC(C)C)N2C1=O (stereo partly drawn) [C781] | – | – | – | 30 to 300 | reduced the 2at response | had no effect | reduced the 2at response | had no effect on vehicle treatment | no significant effect | 8.5 | blocked 2AT-evoked hyperalgesic priming

Reference: patent publication US11952379B2, “Small molecule modulators of PAR2 and uses thereof” (Arizona Board of Regents on Behalf of the University of …, priority 2018, dated 2024)
